Experimental data taken from paper PMC8199500, “Novel Bis- and Mono-Pyrrolo[2,3-d]pyrimidine and Purine Derivatives: Synthesis, Computational Analysis and Antiproliferative Evaluation” (Molecules, 2021).

Columns and labels:
[1] = test system: lung adenocarcinoma (A549) cells; assay: MTT proliferation assay, A549 cells; assay type: cell-based, human
Protocol: (§1) Human carcinoma cell lines A549 (lung carcinoma), HeLa (cervical carcinoma), SW620 (colorectal adenocarcinoma, metastatic) and CFPAC-1 (pancreatic cancer, derived from metastatic: liver), and normal human foreskin (HFF-1) fibroblasts were obtained from the American Type Culture Collection (ATCC, Manassas, VA, USA). Cells were cultured in humidified atmosphere at 37 °C with 5% CO2. As growth medium, Dulbecco′s modified Eagle medium (DMEM) was used with the addition of fetal bovine serum (10%), L-glutamine (2 mM) and antibiotics: streptomycin ([…]) and penicillin (100 U/mL).
(§2) Cells were seeded onto 96-well microtiter plates at a seeding density of 3000 cells/well for carcinoma cell lines, and 5000 cells/well for normal human fibroblasts. The next day, cells were treated with test agents in five different concentrations (0.01–100 µM) and further incubated for 72 h. […] Following 72 h incubation, the MTT assay was performed and measured absorbances were transformed into percentage of cell growth as described previously. Results were obtained from three independent experiments. IC50 values were calculated using linear regression analysis and results were statistically analyzed by ANOVA, Tukey post-hoc test (p < 0.05).

[2] = test system: ductal pancreatic adenocarcinoma (CFPAC-1) cells; assay: MTT proliferation assay, CFPAC-1 cells; assay type: cell-based, human
Protocol: as §1, §2

[3] = test system: metastatic colorectal adenocarcinoma (SW620) cells; assay: MTT proliferation assay, SW620 cells; assay type: cell-based, human
Protocol: as §1, §2

[4] = test system: cervical carcinoma (HeLa) cells; assay: MTT proliferation assay, HeLa cells; assay type: cell-based, human; details: 72 h incubation
Protocol: as §1, §2

[5] = test system: normal human foreskin fibroblasts (HFF-1); assay: MTT proliferation assay, normal fibroblasts HFF-1; assay type: cell-based; details: 72 h incubation
Protocol: as §1, §2

[6] = Homo sapiens, A549, 72 h incubation
[7] = Homo sapiens, CFPAC-1, 72 h incubation
[8] = Homo sapiens, SW-620, 72 h incubation

Row | Molecule | IC50 ([1]; 72 h incubation) | IC50 ([2]; 72 h incubation) | IC50 ([3]; 72 h incubation) | IC50 [4] | IC50 [1, 6] | IC50 [2, 7] | IC50 [3, 8] | melting point | IC50 ([4]; Homo sapiens, HeLa) | IC50 [5]
1 | {1-[2-(4-Chloro-7H-pyrrolo[2,3-d]pyrimidin-7-yl)ethyl]-1H-1,2,3-triazol-4-yl}methyl ether [5d] | > 100 µM | 36.5 ± 3.9 µM | 53.5 ± 4.8 µM | > 100 µM |  |  |  |  |  | 
2 | {1-[2-(4-(Pyrrolidin-1-yl)-7H-pyrrolo[2,3-d]pyrimidin-7-yl)ethyl]-1H-1,2,3-triazol-4-yl}methyl ether [7d] | > 100 µM | > 100 µM | > 100 µM | > 100 µM |  |  |  |  |  | 
3 | {1-[2-(6-Amino-9H-purin-9-yl)ethyl]-1H-1,2,3-triazol-4-yl}methyl ether [11d] | > 100 µM | > 100 µM | > 100 µM | > 100 µM |  |  |  |  |  | 
4 | c1nc(N2CCCC2)c2ccn(CCn3cc(CCCc4cn(CCn5ccc6c(N7CCCC7)ncnc65)nn4)nn3)c2n1 [7c, 1,3-Bis{1-[2-(4-(pyrrolidin-1-yl)-7H-pyrrolo[2,3-d]pyrimidin-7-yl)ethyl]-1H-1,2,3-triazol-4-yl}propane] |  |  |  |  | > 100 µM | 65.3 ± 5.7 µM | > 100 µM | 170 to 172 °C | 80 ± 1.5 µM | 
5 | Clc1ncnc2c1ccn2CCn1cc(COc2ccc(OCc3cn(CCn4ccc5c(Cl)ncnc54)nn3)cc2)nn1 [5a, 1,4-Bis{[1-(2-(4-chloro-7H-pyrrolo[2,3-d]pyrimidin-7-yl)ethyl)-1H-1,2,3-triazol-4-yl]methoxy}benzene] |  |  |  |  | > 100 µM | > 100 µM | > 100 µM |  | 77 ± 2.6 µM | 
6 | 6-(piperidin-1-yl)-9-{2-[4-(((4′-(prop-2-yn-1-yloxy)-[1,1′-biphenyl]-4-yl)oxy)methyl)-1H-1,2,3-triazol-1-yl]ethyl}-9H-purine [10f] | 62.1 ± 2.3 µM | 6.5 ± 0.78 µM | 98 ± 1.3 µM | 8.1 ± 2.2 µM |  |  |  |  |  | 
7 | c1nc(N2CCCCC2)c2ccn(CCn3cc(COc4ccc(OCc5cn(CCn6ccc7c(N8CCCCC8)ncnc76)nn5)cc4)nn3)c2n1 [6a, 1,4-Bis{[1-(2-(4-(piperidin-1-yl)-7H-pyrrolo[2,3-d]pyrimidin-7-yl)ethyl)-1H-1,2,3-triazol-4-yl]methoxy}benzene] |  |  |  |  | > 100 µM | > 100 µM | > 100 µM | 185 to 187 °C | > 100 µM | 
8 | c1nc(N2CCCCC2)c2ncn(CCn3cc(CCCc4cn(CCn5cnc6c(N7CCCCC7)ncnc65)nn4)nn3)c2n1 [9c, 1,3-Bis{1-[2-(6-(piperidin-1-yl)-9H-purin-9-yl)ethyl]-1H-1,2,3-triazol-4-yl}propane] |  |  |  |  | > 100 µM | 53.9 ± 3.4 µM | > 100 µM |  | 41.2 ± 0.99 µM | 
9 | {1-[2-(6-(Piperidin-1-yl)-9H-purin-9-yl)ethyl]-1H-1,2,3-triazol-4-yl}methyl ether [10d] | 87.3 ± 4.4 µM | 52.5 ± 4.6 µM | 63.4 ± 3.6 µM | 66.9 ± 11.2 µM |  |  |  |  |  | 
10 | {1-[2-(6-(Piperidin-1-yl)-9H-purin-9-yl)ethyl]-1H-1,2,3-triazol-4-yl}methyl ether [9d] | 73.1 ± 7.7 µM | 56.8 ± 2.9 µM | 66.1 ± 3 µM | 34.7 ± 12.1 µM |  |  |  |  |  | 
11 | C#CCCCc1cn(CCn2ccc3c(Cl)ncnc32)nn1 [5g, 4-chloro-7-{2-[4-(pent-4-yn-1-yl)-1H-1,2,3-triazol-1-yl]ethyl}-7H-pyrrolo[2,3-d]pyrimidine] |  |  |  |  | > 100 µM | 19.5 ± 4 µM | 80.5 ± 14.9 µM |  | 75 ± 3.5 µM | 

Further lines, with some results ahead:

Row | IC50 ([1]; 72 h incubation) | IC50 ([2]; 72 h incubation) | IC50 ([3]; 72 h incubation) | IC50 [4] | IC50 [1, 6] | IC50 [2, 7] | IC50 [3, 8] | melting point | IC50 ([4]; Homo sapiens, HeLa) | Molecule | IC50 [5]
12 |  |  |  |  | 53.9 ± 2.1 µM | 17.4 ± 6.3 µM | 24.7 ± 8.7 µM | 137 to 139 °C | 68.5 ± 3.2 µM | c1nc(N2CCCCC2)c2ccn(CCn3cc(COc4ccc(-c5ccc(OCc6cn(CCn7ccc8c(N9CCCCC9)ncnc87)nn6)cc5)cc4)nn3)c2n1 [6b, 4,4′-Bis{[1-(2-(4-(piperidin-1-yl)-7H-pyrrolo[2,3-d]pyrimidin-7-yl)ethyl)-1H-1,2,3-triazol-4-yl]methoxy}-1,1′-biphenyl] | 
13 |  |  |  |  | 6.3 ± 1.2 µM | > 100 µM | > 100 µM |  | > 100 µM | Clc1ncnc2c1ccn2CCn1cc(COc2ccc(-c3ccc(OCc4cn(CCn5ccc6c(Cl)ncnc65)nn4)cc3)cc2)nn1 [5b, 4,4′-Bis{[1-(2-(4-chloro-7H-pyrrolo[2,3-d]pyrimidin-7-yl)ethyl)-1H-1,2,3-triazol-4-yl]-methoxy}-1,1′-biphenyl] | 130 nM
14 |  |  |  |  | > 100 µM | > 100 µM | > 100 µM | 191 to 193 °C | > 100 µM | C#CCOCc1cn(CCn2cnc3c(N)ncnc32)nn1 [11h, 6-amino-9-{2-[4-((prop-2-yn-1-yloxy)methyl)-1H-1,2,3-triazol-1-yl]ethyl}-9H-purine] | 
15 |  |  |  |  | > 100 µM | > 100 µM | > 100 µM | 226 to 228 °C | > 100 µM | C#CCCCc1cn(CCn2cnc3c(N)ncnc32)nn1 [11g, 6-Amino-9-{2-[4-(pent-4-yn-1-yl)-1H-1,2,3-triazol-1-yl]ethyl}-9H-purine] | 
16 |  |  |  |  | 58.7 ± 10.2 µM | 23.4 ± 4.2 µM | 35.7 ± 0.79 µM | 233 to 236 °C | 17.1 ± 1.3 µM | C#CCOc1ccc(OCc2cn(CCn3cnc4c(N5CCCCC5)ncnc43)nn2)cc1 [9e, 6-(piperidin-1-yl)-9-{2-[4-((4-(prop-2-yn-1-yloxy)phenoxy)methyl)-1H-1,2,3-triazol-1-yl]ethyl}-9H-purine] | 
17 |  |  |  |  | > 100 µM | > 100 µM | > 100 µM | > 280 °C | > 100 µM | C#CCOc1ccc(OCc2cn(CCn3cnc4c(N)ncnc43)nn2)cc1 [11e, 6-amino-9-{2-[4-((4-(prop-2-yn-1-yloxy)phenoxy)methyl)-1H-1,2,3-triazol-1-yl]ethyl}-9H-purine] | 
18 |  |  |  |  | > 100 µM | 75.2 ± 12.2 µM | > 100 µM |  | 72.2 ± 9 µM | C#CCCCc1cn(CCn2cnc3c(N4CCCCC4)ncnc32)nn1 [9g, 9-{2-[4-(pent-4-yn-1-yl)-1H-1,2,3-triazol-1-yl]ethyl}-6-(piperidin-1-yl)-9H-purine] | 
19 |  |  |  |  | > 100 µM | > 100 µM | > 100 µM |  | > 100 µM | Nc1ncnc2c1ncn2CCn1cc(COc2ccc(OCc3cn(CCn4cnc5c(N)ncnc54)nn3)cc2)nn1 [11a, 1,4-Bis{[1-(2-(6-amino-9H-purin-9-yl)ethyl)-1H-1,2,3-triazol-4-yl]methoxy}benzene] | 
20 |  |  |  |  | 95 ± 3.2 µM | 48.5 ± 1.6 µM | 98.3 ± 7.4 µM |  | 60.6 ± 5.9 µM | c1nc(N2CCCC2)c2ncn(CCn3cc(COc4ccc(OCc5cn(CCn6cnc7c(N8CCCC8)ncnc76)nn5)cc4)nn3)c2n1 [10a, 1,4-Bis{[1-(2-(6-(pyrrolidin-1-yl)-9H-purin-9-yl)ethyl)-1H-1,2,3-triazol-4-yl]methoxy}benzene] | 
21 |  |  |  |  | 99.6 ± 1.5 µM | 74.9 ± 3.8 µM | > 100 µM |  | 99.7 ± 5.9 µM | Clc1ncnc2c1ccn2CCn1cc(CCCc2cn(CCn3ccc4c(Cl)ncnc43)nn2)nn1 [5c, 1,3-Bis{1-[2-(4-chloro-7H-pyrrolo[2,3-d]pyrimidin-7-yl)ethyl]-1H-1,2,3-triazol-4-yl}propane] | 
22 |  |  |  |  | 69 ± 1.2 µM | 77.4 ± 3.5 µM | > 100 µM | 187 to 189 °C | 54.6 ± 5.2 µM | c1nc(N2CCCC2)c2ccn(CCn3cc(COc4ccc(-c5ccc(OCc6cn(CCn7ccc8c(N9CCCC9)ncnc87)nn6)cc5)cc4)nn3)c2n1 [7b, 4,4′-Bis{[1-(2-(4-(pyrrolidin-1-yl)-7H-pyrrolo[2,3-d]pyrimidin-7-yl)ethyl)-1H-1,2,3-triazol-4-yl]methoxy}-1,1′-biphenyl] | 
